According to patent US3951979A, “New amino propanediol derivatives” (priority 1972, dated 1976):
Where two headings read alike, the source gives them in different places.

What was measured:
[1] = test system: carotid arterial blood-pressure; experiment: Effect on carotid arterial blood-pressure of the dog anaesthetised with chloralose; format: in vivo; conditions: for Hypotensive effect (in words): in vivo
Method: EFFECT ON ARTERIAL BLOOD-PRESSURE This was measured on the dog anaesthetised with chloralose by recording both the extent of, and the duration of, the effect on carotid arterial blood-pressure.

apomorphine = experiment: Anti-apomorphic effect in the rat; format: in vivo; set-up: Anti-apomorphine: unit not given here; conditions: for Anti-apomorphine: apomorphine 0.6 mg/kg; for Activity in apomorphine stereotypes (in words): in vivo
rat = experiment: Cataleptic effect, homolateral crossed paws method; format: in vivo; set-up: Catalepsy: unit not given here; conditions: for Catalepsy / Catalepsy, result at stated dose: I.P.; for Cataleptic effect (in words): in vivo
[2] = Acute toxicity, LD50, oral administration; conditions: in vivo, mouse
Method: 1. Acute toxicity -- LD50 -- Oral administration
This was determined upon the mouse by oral administration, the LD50 value being calculated by the method of B. Behrens & C. Karber (Arch F. Exp. Patho. Pharm., volume 177, page 379 (1935) )

[3] = test system: mebubarbital-induced sleep; experiment: Potentiation of an inactive dose of a barbiturate (mebubarbital); format: in vivo; conditions: for ED50: 0.25 h, read-out: Barbiturates (potentiation), ED50
cerebral dopamine = experiment: Biochemical dopamine effect on the brain (spectrofluorometric); format: in vivo, mouse (strain OF1); conditions: mouse; for Cerebral dopamine / Cerebral dopamine (result in words): I.P.; for Cerebral dopamine (result in words): dose not given
Method: 7. Biochemical dopamine effect on the brain This effect is measured by spectrofluorometric means using the Jobin-Yvon Bearn apparatus, on the brains of mice of the strain OF1.

central nervous system = experiment: Effect on the central nervous system, overall psycholeptic/neuroleptic spectrum; conditions: in vivo
From the text: EFFECT ON THE CENTRAL NERVOUS SYSTEM
This effect was observed by means of a set of tests of which the most significant are summarised below: […]

[4] = test system: apomorphine-induced vomiting; experiment: Anti-emetic effect: apomorphine-induced attempted vomits in beagle dogs; format: in vivo; conditions: dog
Method: The anti-emetic effect, which may constitute a contributory factor to the main effect, was also systematically tested in accordance with the following procedure:
Dogs of the beagle breed were split up at random into groups of 3 animals. After fasting for 24 hours, the animals were given an empty capsule then, one hour later, received a sub-cutaneous injection of apomorphine hydrochloride (0.3 mg/kg). The number of attempted vomits during 45 minutes was then counted.
After 15 days rest, the same animals were given a capsule identical to that given on the first occasion but containing the product to be tested. The injection of apomorphine was carried out under the same conditions as for the control experiment.

coughing spasms = experiment: Antitussive effect: inhibition of coughing spasms induced by stimulating a laryngeal nerve; format: in vivo, cat; conditions: for Activity of the product (antitussive) / Duration of activity (antitussive): cat; for Dose of pentoxyverine necessary for comparable antitussive effect, relative to compound: versus pentoxyverine
From the text: Finally, the compounds of the invention having shown themselves to be powerful antitussive agents, the results of comparative tests for this activity on four compounds of the invention and on pentoxyverine, one of the most powerful antitussive agents at present known, are given below in Table V.
The technique used was the method of R. Domenjoz, Arch. Exp. Pathol. V. Pharmacol. Volume 215, page 19 (1952)
The cat is anaesthetized with ether and tracheotomised.
Coughing spasms are induced by stimulating a laryngeal nerve. After the product to be tested has been administered, fresh stimulation enables the inhibition achieved and its duration to be assessed.

[5] = Canis lupus familiaris, 1.25 mg/kg intravenous
[6] = oral administration, sleep in 50% of animals 15 minutes after product

SMILES: C#CC(C)(C)OCC(O)CN1CCN(c2ccccc2)CC1 (stereo not shown) [Compound No. 1]
- Duration of activity (blood-pressure) ([1]; 1.25 mg/kg intravenous): ≥ 35 min
- change in vivo at 1.25 mg/kg [1, 5]: -20.3%

SMILES: C#CC1(OCC(O)CN2CCN(c3ccccc3)CC2)CCCCC1 (stereo not shown) [Compound No. 2]
- Anti-apomorphine (apomorphine; subcutaneous): 50
- Catalepsy (rat): 50
- LD50 [2]: > 600 mg/kg
- ED50 [3, 6]: 100 mg/kg
- Cerebral dopamine (cerebral dopamine; at 40 mg/kg): -33%

SMILES: C#CC(C)(CC)OCC(O)CN1CCN(c2ccccc2)CC1 (stereo not shown) [Compound No. 3]
- Catalepsy, result at stated dose (rat; at 40): Inactive
- Neuroleptic/psycholeptic activity (in words) (central nervous system): only slightly neuroleptic
- LD50 [2]: > 600 mg/kg
- ED50 [3, 6]: > 100 mg/kg
- Duration of activity (blood-pressure) ([1]; 1.25 mg/kg intravenous): 35 min
- change in vivo at 1.25 mg/kg [1, 5]: -21.5%
- Hypotensive effect (in words) [1]: markedly hypotensive
- Cerebral dopamine (cerebral dopamine; at 60 mg/kg): -45%

SMILES: C#CC1(OCC(O)CN2CCN(c3ccc(F)cc3)CC2)CCCCC1 (stereo not shown) [Compound No. 4, 1-3-(1-ethynyl)cyclohexyloxy-2-hydroxy propyl-4-(4-fluorophenyl)piperazine]
- Anti-apomorphine (apomorphine; O.A.): 92
- Catalepsy (rat): 20
- Reduction in attempted vomits ([4]; 1 mg/kg subcutaneous): 74%
- Neuroleptic/psycholeptic activity (in words) (central nervous system): fairly full spectrum characteristic of neuroleptic activity
- LD50 [2]: 800 mg/kg
- ED50 [3, 6]: 20 mg/kg
- Duration of activity (blood-pressure) ([1]; 5 mg/kg intravenous): 20 min
- change in vivo at 5 mg/kg ([1]; Canis lupus familiaris, 5 mg/kg intravenous): -50%
- Cerebral dopamine (cerebral dopamine; at 10 mg/kg): -50%
- Depletion of cerebral mono-amines (in words) (cerebral dopamine; in vivo): depletion of cerebral mono-amines in a manner reminiscent of reserpine

SMILES: C#CC1(OCC(O)CN2CCN(c3cccc(C(F)(F)F)c3)CC2)CCCCC1 (stereo not shown) [Compound No. 11]
- Anti-apomorphine (apomorphine; O.A.): 15
- Activity in apomorphine stereotypes (in words) (apomorphine): extremely active in apomorphine stereotypes
- Catalepsy, result at stated dose (rat; at 40): Inactive
- Cataleptic effect (in words) (rat): slightly cataleptic
- Reduction in attempted vomits ([4]; 10 mg/kg oral): 75%
- Sedative effect (in words) (central nervous system): fairly sedative
- LD50 [2]: 783 mg/kg
- ED50 [3, 6]: 90 mg/kg
- Duration of activity (blood-pressure) ([1]; 1.25 mg/kg intravenous): 30 min
- change in vivo at 1.25 mg/kg [1, 5]: -15%
- Hypotensive effect (in words) [1]: slightly hypotensive
- Cerebral dopamine (result in words) (cerebral dopamine): Inactive

SMILES: C#CC1(OCC(O)CN2CCN(c3ccccc3OC)CC2)CCCCC1 (stereo not shown) [Compound No. 20, 1-3-(1-ethynyl)cyclohexyloxy-2-hydroxy-propyl-4-(2-methoxy)phenylpiperazine]
- Anti-apomorphine (apomorphine; I.P.): 5
- Activity in apomorphine stereotypes (in words) (apomorphine): active in apomorphine stereotypes
- Catalepsy, result at stated dose (rat; at 20): Inactive
- Cataleptic effect (in words) (rat): non-inducive of catalepsy
- Reduction in attempted vomits ([4]; 1 mg/kg oral): 100%
- Reduction in attempted vomits ([4]; 1 mg/kg subcutaneous): 100%
- Inhibition of the emetic effect of apomorphine compared with metoclopramide ([4]; oral administration): superior to that of metoclopramide
- Inhibition of the emetic effect of apomorphine compared with metoclopramide ([4]; subcutaneous injection): equal to that of metoclopramide
- Sedative effect (in words) (central nervous system): non-sedative
- LD50 [2]: 60 mg/kg
- Barbiturates (potentiation), ED50 [3, 6]: Inactive
- Duration of activity (blood-pressure) ([1]; 1.25 mg/kg intravenous): ≥ 70 min
- change in vivo at 1.25 mg/kg [1, 5]: -35.6%
- Hypotensive effect (in words) [1]: especially hypotensive
- Cerebral dopamine (result in words) (cerebral dopamine): Inactive

SMILES: C#CC(C)(CC)OCC(O)CN1CCN(CC(OCC)c2ccccc2)CC1 (stereo not shown) [Compound No. 25, 1-3-(1-methyl-1-ethynyl)propoxy-2-hydroxy propyl-4-(2-ethoxy-2-phenyl)ethylpiperazine]
- Activity of the product (antitussive) (coughing spasms; 5 mg/kg body weight): 41%
- Duration of activity (antitussive) (coughing spasms; 5 mg/kg body weight): > 35 min
- Activity of the product (antitussive) (coughing spasms; 7.5 mg/kg body weight): 49%
- Duration of activity (antitussive) (coughing spasms; 7.5 mg/kg body weight): 62 min
- Activity of the product (antitussive) (coughing spasms; 10 mg/kg body weight): 71%
- Duration of activity (antitussive) (coughing spasms; 10 mg/kg body weight): 80 min
- Dose of pentoxyverine necessary for comparable antitussive effect, relative to compound (coughing spasms): five times greater

SMILES: O=C(CCCN1CCC(O)(c2ccc(Cl)cc2)CC1)c1ccc(F)cc1 [Haloperidol, haloperidol, reference compound]
- Anti-apomorphine (apomorphine; subcutaneous): 0.5
- Catalepsy (rat): 1
- LD50 [2]: 125 mg/kg
- ED50 ([3]; po): 12 mg/kg
- Cerebral dopamine (cerebral dopamine; at 10 mg/kg): -30%

SMILES: CCN(CC)CCNC(=O)c1cc(Cl)c(N)cc1OC [Metoclopramide, metoclopramide, reference compound]
- Reduction in attempted vomits ([4]; 1 mg/kg subcutaneous): 100%
- Reduction in attempted vomits ([4]; 1.5 mg/kg oral): 100%

SMILES: CCN(CC)CCOCCOC(=O)C1(c2ccccc2)CCCC1 [Pentoxyverine, pentoxyverine, reference compound]
- Activity of the product (antitussive) (coughing spasms; 10 mg/kg body weight): 45%
- Duration of activity (antitussive) (coughing spasms; 10 mg/kg body weight): 30 min
- Activity of the product (antitussive) (coughing spasms; 50 mg/kg body weight): 71%
- Duration of activity (antitussive) (coughing spasms; 50 mg/kg body weight): 110 min

SMILES: C#CC(C)(C)OCC(O)CN1CCN(c2ccc(F)cc2)CC1 (stereo not shown) [compound 5]
- Duration of activity (blood-pressure) ([1]; 1.25 mg/kg intravenous): ≥ 35 min
- change in vivo at 1.25 mg/kg [1, 5]: -19.5%

SMILES: C#CC1(OCC(O)CN2CCN(c3ccc(Cl)cc3)CC2)CCCCC1 (stereo not shown) [compound 8]
- Catalepsy (rat): 30
- Reduction in attempted vomits ([4]; 5 mg/kg oral): 76%
- LD50 [2]: > 600 mg/kg
- ED50 [3, 6]: 50 mg/kg
- Cerebral dopamine (cerebral dopamine; at 80 mg/kg): -78%

SMILES: C#CC(C)(CC)OCC(O)CN1CCN(c2ccc(F)cc2)CC1 (stereo not shown) [compound 9]
- Catalepsy (rat): 60
- LD50 [2]: > 600 mg/kg
- ED50 [3, 6]: > 100 mg/kg
- Duration of activity (blood-pressure) ([1]; 1.25 mg/kg intravenous): 20 min
- change in vivo at 1.25 mg/kg [1, 5]: -27%
- Cerebral dopamine (cerebral dopamine; at 60 mg/kg): -50%

SMILES: C#CC(C)(CC)OCC(O)CN1CCN(c2ccccc2OC)CC1 (stereo not shown) [compound 18]
- Activity in apomorphine stereotypes (in words) (apomorphine): active in apomorphine stereotypes
- Anti-apomorphine (apomorphine; subcutaneous): 10
- Catalepsy, result at stated dose (rat; at 40): Inactive
- Cataleptic effect (in words) (rat): non-inducive of catalepsy
- Sedative effect (in words) (central nervous system): non-sedative
- LD50 [2]: > 200 mg/kg
- ED50 [3, 6]: > 25 mg/kg
- Cerebral dopamine (cerebral dopamine; at 20 mg/kg): -24%

SMILES: C#CC1(OCC(O)CN2CCN(CC(OC)c3ccccc3)CC2)CCCCC1 (stereo not shown) [compound 21]
- Activity of the product (antitussive) (coughing spasms; 10 mg/kg body weight): 54%
- Duration of activity (antitussive) (coughing spasms; 10 mg/kg body weight): 20 min

SMILES: C#CC1(OCC(O)CN2CCN(CC(OCC)c3ccccc3)CC2)CCCCC1 (stereo not shown) [compound 22]
- Activity of the product (antitussive) (coughing spasms; 10 mg/kg body weight): 75%
- Duration of activity (antitussive) (coughing spasms; 10 mg/kg body weight): 50 min
- Dose of pentoxyverine necessary for comparable antitussive effect, relative to compound (coughing spasms): five times greater

SMILES: C#CC(C)(C)OCC(O)CN1CCN(CC(OC)c2ccccc2)CC1 (stereo not shown) [compound 23]
- Activity of the product (antitussive) (coughing spasms; 10 mg/kg body weight): 31%
- Duration of activity (antitussive) (coughing spasms; 10 mg/kg body weight): 25 min

SMILES: C[C@](N)(Cc1ccc(O)c(O)c1)C(=O)O [αmethyldopa, reference compound]
- Duration of activity (blood-pressure) ([1]; 1.25 mg/kg intravenous): 95 min
- change in vivo at 1.25 mg/kg [1, 5]: -8.7%
